Values of other authors as cited in patent US9744133B2, “Enhanced stability of novel liquid compositions” (Pfizer Inc., priority 2013, dated 2017).

Settings: 25° C.

SMILES: COc1ccccc1OCC(O)CO (stereo not shown) [Guaifenesin]
- Solubility in water: approximately 4 % by weight
